Consider 12 compounds from US10717720B2, “Modified compound of andrographolide” (Heilongjiang Zhenbaodao Pharmaceutical Co., Ltd., priority 2015, dated 2020).

Where two headings read alike, the source gives them in different places. Bounds are passed on as bounds.

Usually inhibition stands for the drop in the measured response relative to a control, in per cent.

In the assay the test system is LPS-induced IL-6 release level from THP-1 cells. The experiment in a line: Test of IL-6 release from THP-1 cells (LPS-induced, IL-6 in supernatant detected by CBA). It counts as cell-based. Conditions: Homo sapiens, read-out: Inhibition rate @ 10 uM. Here is the method:
Test of IL-6 Release from THP-1 Cells
The inhibitory effect of the compound on LPS-induced IL-6 release level from THP-1 cells was evaluated by measuring the level of IL-6 in the cell culture supernatant.
4 ul was taken from each above solution and added to lml of culture solution to make 120 uM, 40 uM, 12 uM, 4 uM. 50 ul per well was taken and added to wells with cells to give final concentrations of 30 uM, 10 uM, 3 uM, and 1 uM, respectively. Dexamethasone was added as a positive drug into an individual cell well with a final concentration of 100 nM. • c) Cell stimulation
The LPS 1 mg/ml solution was diluted to 800 ng/ml with the culture solution and added to the cell culture wells at 50 ul/well. • d) Cell incubation and detection
The cell culture plate was placed in a 37° C. incubator, and the supernatant was collected after culturing for 24 hours. The level of IL-6 in the supernatant was detected by CBA.

The mark [1] stands for this setting: inflammatory factor IL-6 detected by CBA, compound 10 uM, LPS-stimulated THP-1 cells, supernatant after 24 hours.

As to `C=C1CCC2[C@]3(C)COC4(CCCC4)O[C@@H]3CC[C@@]2(C)[C@@H]1CCOc1ccncc1` (stereo partly drawn) [Compound 416], under setting [1], the inhibition at 10 µM is above 60%.
Take `C=C1CCC2[C@]3(C)CO[C@@H](C4CCCC4)O[C@@H]3CC[C@@]2(C)[C@@H]1CCOC1CCN(CC(=O)O)CC1` (stereo partly drawn) [Compound 426, 2-(4-(2-((3R,4aR,6aS,7R,10bR)-3-cyclopentyl-6a,10b-dimethyl-8-dihydromethylenedecahydro-1H-naphtho[2,1-d][1,3]dioxin-7-yl)ethoxy)piperidine-1-yl)acetic acid]: under setting [1], the inhibition at 10 µM was 30 to 60%.
For `C=C1CCC2[C@]3(C)CO[C@@H](C4CCCCC4)O[C@@H]3CC[C@@]2(C)[C@@H]1CCOc1ccncc1` (stereo partly drawn) [Compound 429, 4-(2-((3R,4aR,6aS,7R,10bR)-3-cyclohexyl-6a,10b-dimethyl-8-dihydromethylenedecahydro-1H-naphtho[2,1-d][1,3]dioxin-7-yl)ethoxy)pyridine], the inhibition at 10 µM under setting [1] is below 30%.
Take `C=C1CCC2[C@]3(C)CO[C@@H](C4CCCC4)O[C@@H]3CC[C@@]2(C)[C@@H]1CCOC1CN(C(C)C)C1` (stereo partly drawn) [Compound 313, 3-(2-((3R,4aR,6aS,7R,10bR)-3-cyclopentyl-6a,10b-dimethyl-8-dihydromethylenedecahydro-1H-naphtho[2,1-d][1,3]dioxin-7-yl)ethoxy)-1-isopropyl azetidine]: the inhibition at 10 µM (THP-1, 24 h) lay in the range of 30 to 60%.
On to `C=C1CCC2[C@]3(C)CO[C@@H](C4CCCC4)O[C@@H]3CC[C@@]2(C)[C@@H]1CCOc1ccnc(N)c1` (stereo partly drawn) [Compound 321, 4-(2-((3R,4aR,6aS,7R,10bR)-3-cyclopentyl-6a,10b-dimethyl-8-dihydromethylenedecahydro-1H-naphtho[2,1-d][1,3]dioxin-7-yl)ethoxy)-pyridin-2-amine], for which the inhibition at 10 µM under setting [1] was below 30%.
In the case of `C=C1CCC2[C@]3(C)CO[C@@H](C4CCCC4)O[C@@H]3CC[C@@]2(C)[C@@H]1CCN1CCC[C@H]1C(=O)O` (stereo partly drawn) [Compound 435], the inhibition at 10 µM under setting [1] was below 30%.
For the compound `C=C1CCC2[C@]3(C)CO[C@@H](C4CCCC4)O[C@@H]3CC[C@@]2(C)[C@@H]1CCOc1cnccc1C(=O)O` (stereo partly drawn) [Compound 415, 3-(2-((3R,4aR,6aS,7R,10bR)-3-cyclopentyl-6a,10b-dimethyl-8-dihydromethylenedecahydro-1H-naphtho[2,1-d][1,3]dioxin-7-yl)ethoxy)isonicotinic acid], the inhibition at 10 µM under setting [1] is above 60%.
On to `C=C1CCC2[C@]3(C)CO[C@@H](C4CCCC4)O[C@@H]3CC[C@@]2(C)[C@@H]1CCN1CC(CO)C1` (stereo partly drawn) [Compound 355], for which, under setting [1], the inhibition at 10 µM was below 30%.
Turning to `C=C1CCC2[C@]3(C)CO[C@@H](C4CCCC4)O[C@@H]3CC[C@@]2(C)[C@@H]1CCN1CCCC1C(=O)O` (stereo partly drawn) [Compound 163, 1-(2-((3R,4aR,6aS,7R,10bR)-3-cyclopentyl-6a,10b-dimethyl-8-methylenedecahydro-1H-naphtho[2,1-d][1,3]dioxin-7-yl)ethyl)pyrrolidine-2-carboxylic acid], under setting [1], the inhibition at 10 µM is above 60%.
`C=C1CCC2[C@]3(C)CO[C@@H](c4ccc(F)c(F)c4)O[C@@H]3CC[C@@]2(C)[C@@H]1CCN1C(=O)CCC1=O` (stereo partly drawn) [Compound 214, 1-(2-((3R,4aR,6aS,7R,10bR)-3-(3,4-difluorophenyl)-6a, 10b-dimethyl-8-methylenedecahydro-1H-naphtho[2,1-d][1,3]dioxin-7-yl)ethyl)pyrrolidine-2,5-dione]: under setting [1], the inhibition at 10 µM is above 60%.
Same read-out and setting: the same measure for `C=C1CCC2[C@]3(C)CO[C@@H](C4CCCC4)O[C@@H]3CC[C@@]2(C)[C@@H]1CCOC1CCN(CC(F)(F)F)CC1` (stereo partly drawn) [Compound 483, 4-(2-((3R,4aR,6aS,7R,10bR)-3-cyclopentyl-6a,10b-dimethyl-8-dihydromethylenedecahydro-1H-naphtho[2,1-d][1,3]dioxin-7-yl)ethoxy)-1-(2,2,2,-trifluoroethyl)piperidine]: 30 to 60%; for `C=C1CCC2[C@]3(C)CO[C@@H](C4CCCC4)O[C@@H]3CC[C@@]2(C)[C@@H]1CCO` (stereo partly drawn) [Compound 399, 2-((3R,4aR,6aS,7R,10bR)-3-cyclopentyl-6a,10b-dimethyl-8-dihydromethylenedecahydro-1H-naphtho[2,1-d][1,3]dioxin-7-yl)ethanol]: above 60%.
